Reference: publication PMC5520929, “Bilirubin neurotoxicity is associated with proteasome inhibition” (Cell Death & Disease, 2017)

Target: T1, 20S proteasome chymotrypsin-like (CT-like) peptidase (Homo sapiens, UniProt P28074)
T1 construct: gene PSMB5; purified human 20S proteasomes; with 20S proteasome
T1 sequence (P28074 60-263): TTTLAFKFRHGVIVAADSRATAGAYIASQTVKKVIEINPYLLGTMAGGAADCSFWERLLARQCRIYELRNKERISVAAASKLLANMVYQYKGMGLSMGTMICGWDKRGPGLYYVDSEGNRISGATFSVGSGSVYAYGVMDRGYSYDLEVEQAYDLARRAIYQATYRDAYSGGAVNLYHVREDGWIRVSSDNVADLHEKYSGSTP
Test: fluorogenic Suc-LLVY-AMC peptidase assay on purified human
Format: biochemical

An IC50 of roughly 20 µM was found for `C=CC1=C(C)/C(=C/c2[nH]c(Cc3[nH]c(/C=C4\NC(=O)C(C)=C4C=C)c(C)c3CCC(=O)O)c(CCC(=O)O)c2C)NC1=O` [Bil, bilirubin] in this work.
